According to patent publication US12582645B2, “Chemokine CXCR4 receptor modulators and uses related thereto” (Emory University, priority 2017, dated 2026):

The molecules below were run against T1, CXCR4 (Homo sapiens, UniProt P61073) (assay: CXCR4-CEM calcium flux assay, antagonist mode (inhibition of SDF-1α-induced calcium flux)). Settings: CCRF-CEM cells expressing endogenous CXCR4, stimulated with 4 nM SDF-1α, read-out: CXCR4 Ca^2+ Flux IC50.
T1 construct: Human T lymphoblast cells (CCRF-CEM) expressing endogenous CXCR4 receptors; endogenous in cells; host or cells: CCRF-CEM (human T lymphoblast cells)
Type: cell-based
Experimental: CXCR4-CEM Calcium Flux Assays
Exemplary compounds of the invention were tested for their ability to induce or inhibit calcium flux in CCRF-CEM cells, a human cell line that endogenously expresses CXCR4. Activation of CXCR4 stimulates G protein signaling which, in CCRF-CEM cells, causes a series of downstream events that leads to the release of intracellular calcium stores, or calcium flux. Calcium ion concentrations can be easily measured using a wide variety of […] calcium indicators and, as a result, calcium flux assays are commonly employed methods for measuring G protein-coupled receptor (GPCR) activity. Because the therapeutic potential of CXCR4 antagonists as anti-cancer agents likely relies on their ability to inhibit CXCR4-mediated G protein signaling, this assay was utilized as a first-pass measure of inhibitor potency.
The cells were then equilibrated to room temperature for 30 minutes before assay. […] For “antagonist mode” assessment, the cells are subsequently incubated for 25 minutes at room temperature. SDF-1α (R&D System Cat #350-NS/CF) was then added at a final concentration of 4 nM to stimulate the cells. Inhibition of SDF-1α-induced calcium flux was monitored by FDSS6000 for 90 seconds.
After correcting for background, EC50 values were determined. […] Inhibition data for the test compound over a range of concentrations was plotted as percentage inhibition of the test compound as compared to an internal control compound.

T1 sequence (P61073 whole entry): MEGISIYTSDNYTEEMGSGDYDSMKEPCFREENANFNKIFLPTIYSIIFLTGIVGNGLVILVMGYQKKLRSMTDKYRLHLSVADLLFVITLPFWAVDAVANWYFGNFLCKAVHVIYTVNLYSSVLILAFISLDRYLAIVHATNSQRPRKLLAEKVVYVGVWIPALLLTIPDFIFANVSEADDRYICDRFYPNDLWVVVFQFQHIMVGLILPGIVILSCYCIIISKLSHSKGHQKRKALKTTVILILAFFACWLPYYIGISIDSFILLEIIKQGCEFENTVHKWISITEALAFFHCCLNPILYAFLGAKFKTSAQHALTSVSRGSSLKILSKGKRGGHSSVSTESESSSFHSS

IC50 [nM]	SMILES
45.3	c1cnc2c(c1)CCC[C@@H]2N(CCCN1CCNCC1)Cc1nc2ccccc2[nH]1 [EMU185, (S)—N-((1H-benzo[d]imidazole-2yl)methyl)-N-(3-(piperazine-1yl)propyl)-5,6,7,8-tetrahydroquinolin-8-amine]
1200	c1cnc2c(c1)CCC[C@@H]2N(CCCN1CCNCC1)Cc1nc2ccccc2s1 [EMU186, (S)—N-((1H-benzo[d]thiazol-2yl)methyl)-N-(3-(piperazine-1yl)propyl)-5,6,7,8-tetrahydroquinolin-8-amine]
4320	c1cnc(CN(CCCN2CCNCC2)[C@H]2CCCc3cccnc32)nc1 [EMU187, (S)—N-(3-(piperazin-1yl)propyl)-N-(pyrimidin-2ylmethyl)-5,6,7,8-tetrahydroquinolin-8-amine]
23.5	CN(C[C@H]1Cc2c(cccc2N2CCN(C3CC3)CC2)CN1)[C@H]1CCCc2cccnc21 [EMU196]
16.9	CC(C)N1CCN(c2cccc3c2C[C@H](CN(C)[C@H]2CCCc4cccnc42)NC3)CC1 [EMU197]
14.1	C[C@@H]1CN(c2cccc3c2C[C@H](CN(C)[C@H]2CCCc4cccnc42)NC3)C[C@H](C)N1C [EMU198]
13.8	CCN1CCN(c2cccc3c2C[C@H](CN(C)[C@H]2CCCc4cccnc42)NC3)CC1 [EMU199]
20.7	CN(C[C@H]1Cc2c(cccc2N2C[C@H]3C[C@@H]2CN3)CN1)[C@H]1CCCc2cccnc21 [EMU200]
30.7	CN(C[C@H]1Cc2c(cccc2N2CCN(c3ncccn3)CC2)CN1)[C@H]1CCCc2cccnc21 [EMU203]
28.2	C/C(=C/CN)CN(C[C@H]1Cc2ccccc2CN1)[C@H]1CCCc2cccnc21 [EMU208]
207	NC(=O)NC/C=C\CN(C[C@H]1Cc2ccccc2CN1)[C@H]1CCCc2cccnc21 [EMU211]
90.3	c1ccc2c(c1)CN[C@@H](CN(Cc1ccc(CNC3CCOCC3)cc1)[C@H]1CCCc3cccnc31)C2 [EMU217, (S)—N-(4-(((tetrahydro-2H-pyran-4-yl)amino)methyl)benzyl)-N—(((R)-1,2,3,4-tetrahydroisoquinolin-3-yl)methyl)-5,6,7,8-tetrahydroquinolin-8-amine]
134	c1ccc2c(c1)CN[C@@H](CN(Cc1ccc(CNCc3ccncc3)cc1)[C@H]1CCCc3cccnc31)C2 [EMU218, (S)—N-(4-(((pyridin-4-ylmethyl)amino)methyl)benzyl)-N—(((R)-1,2,3,4-tetrahydroisoquinolin-3-yl)methyl)-5,6,7,8-tetrahydroquinolin-8-amine]
286	c1ccc(CNCc2ccc(CN(C[C@H]3Cc4ccccc4CN3)[C@H]3CCCc4cccnc43)cc2)nc1 [EMU220, (S)—N-(4-(((pyridin-2-ylmethyl)amino)methyl)benzyl)-N—(((R)-1,2,3,4-tetrahydroisoquinolin-3-yl)methyl)-5,6,7,8-tetrahydroquinolin-8-amine]
92.8	C(=C\CN(C[C@H]1Cc2ccccc2CN1)[C@H]1CCCc2cccnc21)/CNCc1cccnc1 [EMU222, (E)-N1-(pyridin-3-ylmethyl)-N4-(((R)-1,2,3,4-tetrahydroisoquinolin-3-yl)methyl)-N4-((S)-5,6,7,8-tetrahydroquinolin-8-yl)but-2-ene-1,4-diamine]
58.3	C(=C\CN(C[C@H]1Cc2ccccc2CN1)[C@H]1CCCc2cccnc21)/CNCc1ccccn1 [EMU223, (E)-N1-(pyridin-2-ylmethyl)-N4-(((R)-1,2,3,4-tetrahydroisoquinolin-3-yl)methyl)-N4-((S)-5,6,7,8-tetrahydroquinolin-8-yl)but-2-ene-1,4-diamine]
> 16700	CN(C[C@H]1Cc2c(cccc2N2CCN(c3cccc(C(F)(F)F)c3)CC2)CN1)[C@H]1CCCc2cccnc21 [EMU226]
9.56	CN1C[C@@H]2CN(c3cccc4c3C[C@H](CN(C)C3CCCc5cccnc53)NC4)C[C@@H]2C1 (some centres unmarked) [EMU227]
35.9	CN(C)C1CCN(c2cccc3c2C[C@H](CN(C)[C@H]2CCCc4cccnc42)NC3)CC1 [EMU228]
47.4	CN1CCN(Nc2cccc3c2C[C@H](CN(C)[C@H]2CCCc4cccnc42)NC3)CC1 [EMU229]
16.1	Cc1cnc2c(c1)CCC[C@@H]2N(C)C[C@H]1Cc2c(cccc2N2CCNCC2)CN1 [EMU230, (S)—N,3-dimethyl-N—(((R)-5-(piperazin-1-yl)-1,2,3,4-tetrahydroisoquinolin-3-yl)methyl)-5,6,7,8-tetrahydroquinolin-8-amine]
25.2	CN1CCN(c2cccc3c2C[C@H](CN2CCC[C@H]4CCc5cccnc5[C@H]42)NC3)CC1 [EMU232, (4aR,10bS)-1-(((R)-5-(4-methylpiperazin-1-yl)-1,2,3,4-tetrahydroisoquinolin-3-yl)methyl)-1,2,3,4,4a,5,6,10b-octahydro-1,10-phenanthroline]
32	CN1Cc2cccc(N3CCNCC3)c2C[C@@H]1CN(C)[C@H]1CCCc2cccnc21 [EMU234]
18.7	CN(C[C@H]1Cc2c(cccc2N2C[C@H]3CCN(C)[C@H]3C2)CN1)C1CCCc2cccnc21 (some centres unmarked) [EMU235]
11.4	CN(C[C@H]1Cc2c(cccc2N2C[C@@H]3CCN(C)[C@@H]3C2)CN1)C1CCCc2cccnc21 (some centres unmarked) [EMU236]
10.4	CN(C)[C@@H]1CCN(c2cccc3c2C[C@H](CN(C)[C@H]2CCCc4cccnc42)NC3)C1 [EMU237]
44.6	CN1Cc2cccc(N3CCN4CCC[C@@H]4C3)c2C[C@@H]1CN(C)[C@H]1CCCc2cccnc21 [EMU239]
13.4	CN1CCC(N(C)c2cccc3c2C[C@H](CN(C)[C@H]2CCCc4cccnc42)NC3)CC1 [EMU240]
58.1	CN1Cc2cccc(N3CCN4CCC[C@H]4C3)c2C[C@@H]1CN(C)[C@H]1CCCc2cccnc21 [EMU241]
